Test results taken from patent US10947252B2, “Inhibitors of KEAP1-Nrf2 protein-protein interaction” (Janssen Pharmaceutica NV, priority 2018, dated 2021).

Columns and labels:
[1] = target: Kelch domain of human KEAP1 (321-624 aa) (Homo sapiens (Human), UniProt Q14145); test: KEAP1 KELCH ThermoFluor binding assay; conditions: KEAP Kelch […], 1,8-ANS, pH 7.0, average of results obtained, read-out: Tf Kd;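 also: Ligand-induced melting temperature shift of E. coli-expressed KEAP1 Kelch protein, Kd estimated from concentration-response curves of ΔTm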
[2] = tested on: Glo-Response ARE-luc2P HEK293 cell line; test: ARE luciferase reporter cell-based assay; conditions: Homo sapiens, HEK293, 24 h, average of results obtained;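 also: luciferase signal tracks Nrf2 activation of the ARE once compounds disrupt KEAP1-Nrf2 binding, read with One-Glo reagent, DMSO serving as low control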

Chain of Kelch domain of human KEAP1 (321-624 aa) (Q14145 321-624): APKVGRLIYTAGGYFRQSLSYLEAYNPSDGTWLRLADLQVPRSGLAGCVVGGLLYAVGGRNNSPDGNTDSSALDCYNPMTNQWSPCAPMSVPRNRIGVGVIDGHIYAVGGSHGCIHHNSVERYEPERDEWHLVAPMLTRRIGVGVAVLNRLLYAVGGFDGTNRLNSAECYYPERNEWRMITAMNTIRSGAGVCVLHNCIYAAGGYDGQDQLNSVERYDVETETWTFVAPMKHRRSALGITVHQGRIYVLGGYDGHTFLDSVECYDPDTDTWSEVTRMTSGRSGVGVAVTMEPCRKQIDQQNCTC

Structure (SMILES)	Kd [1]	EC50 [2]
Cc1ccc([C@H](CC(=O)O)c2ccn3c(C(F)(F)F)nnc3c2C)cc1CN1CC2(CC2)Oc2ncc(C(N)=O)cc2S1(=O)=O (single isomer, unassigned) [Example 201, (*S)-3-(3-((8′-Carbamoyl-1′,1′-dioxidospiro[cyclopropane-1,4′-pyrido[2,3-b][1,4,5]oxathiazepin]-2′(3′H)-yl)methyl)-4-methylphenyl)-3-(8-methyl-3-(trifluoromethyl)-[1,2,4]triazolo[4,3-a]pyridin-7-yl)propanoic Acid]	300 nM	> 20000 nM
Cc1cnc2c(c1)S(=O)(=O)N(Cc1cc([C@H](CC(=O)O)c3ccn4c(C(F)(F)F)nnc4c3C)ccc1C)CC1(CCOCC1)O2 (single isomer, unassigned) [Example 208, (*S)-3-(4-Methyl-3-((8′-methyl-1′,1′-dioxido-2,3,5,6-tetrahydrospiro[pyran-4,4′-pyrido[2,3-b][[,4,5]oxathiazepin]-2′(3′H)-yl)methyl)phenyl)-3-(8-methyl-3-(trifluoromethyl)-[1,2,4]triazolo[4,3-a]pyridin-7-yl)propanoic Acid]	< 1 nM	19 nM
Cc1ccc([C@H](CC(=O)O)c2ccc3c(nnn3C3CC3)c2C)cc1CN1C[C@H]2CCCN2c2ncccc2S1(=O)=O (single isomer, unassigned) [Example 210, (*S)-3-(1-Cyclopropyl-4-methyl-1H-benzo[d][1,2,3]triazol-5-yl)-3-(3-(((R)-5,5-dioxido-7a,8,9,10-tetrahydropyrido[2,3-f]pyrrolo[2,1-d][1,2,5]thiadiazepin-6(7H)-yl)methyl)-4-methylphenyl)propanoic Acid]	< 1 nM	7.7 nM
Cc1ccc([C@@H](CC(=O)O)c2ccc3c(nnn3C3CC3)c2C)cc1CN1C[C@H]2CCCN2c2ncccc2S1(=O)=O (single isomer, unassigned) [Example 211, (*R)-3-(1-Cyclopropyl-4-methyl-1H-benzo[d][1,2,3]triazol-5-yl)-3-(3-(((R)-5,5-dioxido-7a,8,9,10-tetrahydropyrido[2,3-f]pyrrolo[2,1-d][1,2,5]thiadiazepin-6(7H)-yl)methyl)-4-methylphenyl)propanoic Acid]	1.1 nM	42 nM
Cc1ccc([C@H](CC(=O)O)c2ccc3c(nnn3C3CC3)c2C)cc1CN1C[C@H]2CCCCN2c2ncccc2S1(=O)=O (single isomer, unassigned) [Example 212, (*S)-3-(1-Cyclopropyl-4-methyl-1H-benzo[d][1,2,3]triazol-5-yl)-3-(3-(((*R)-5,5-dioxido-7,7a,8,9,10,11-hexahydro-6H-dipyrido[2,1-d:2′,3′-f][1,2,5]thiadiazepin-6-yl)methyl)-4-methylphenyl)propanoic Acid]	< 1 nM	3.7 nM
Cc1ccc([C@@H](CC(=O)O)c2ccc3c(nnn3C3CC3)c2C)cc1CN1C[C@H]2CCCCN2c2ncccc2S1(=O)=O (single isomer, unassigned) [Example 213, (*R)-3-(1-Cyclopropyl-4-methyl-1H-benzo[d][1,2,3]triazol-5-yl)-3-(3-(((*R)-5,5-dioxido-7,7a,8,9,10,11-hexahydro-6H-dipyrido[2,1-d:2′,3′-f][1,2,5]thiadiazepin-6-yl)methyl)-4-methylphenyl)propanoic Acid]	< 1 nM	8 nM
Cc1ccc([C@H](CC(=O)O)c2ccc3c(nnn3C3CC3)c2C)cc1CN1CC2(COC2)Oc2ccccc2S1(=O)=O (single isomer, unassigned) [Example 215, (*S)-3-(1-Cyclopropyl-4-methyl-1H-benzo[d][1,2,3]triazol-5-yl)-3-(3-((1,1-dioxidospiro[benzo[b][1,4,5]oxathiazepine-4,3′-oxetan]-2(3H)-yl)methyl)-4-methylphenyl)propanoic Acid]	< 1 nM	3.3 nM
Cc1ccc([C@@H](CC(=O)O)c2ccc3c(nnn3C3CC3)c2C)cc1CN1CC2(COC2)Oc2ccccc2S1(=O)=O (single isomer, unassigned) [Example 216, (*R)-3-(1-Cyclopropyl-4-methyl-1H-benzo[d][1,2,3]triazol-5-yl)-3-(3-((1,1-dioxidospiro[benzo[b][1,4,5]oxathiazepine-4,3′-oxetan]-2(3H)-yl)methyl)-4-methylphenyl)propanoic Acid]	2 nM	38 nM
Cc1ccc([C@@H](CC(=O)O)c2ccc3c(nnn3C3CC3)c2C)cc1CN1C[C@]2(C)CCCN2c2ncccc2S1(=O)=O (single isomer, unassigned) [Example 220, (*R)-3-(1-Cyclopropyl-4-methyl-1H-benzo[d][1,2,3]triazol-5-yl)-3-(4-methyl-3-(((*S)-7a-methyl-5,5-dioxido-7a,8,9,10-tetrahydropyrido[2,3-f]pyrrolo[2,1-d][1,2,5]thiadiazepin-6(7H)-yl)methyl)phenyl)propanoic Acid]	< 1 nM	61 nM
Cc1ccc([C@H](CC(=O)O)c2ccc3c(nnn3C3CC3)c2C)cc1CN1C[C@@]2(C)CCCN2c2ncccc2S1(=O)=O (single isomer, unassigned) [Example 222, (*S)-3-(1-Cyclopropyl-4-methyl-1H-benzo[d][1,2,3]triazol-5-yl)-3-(4-methyl-3-(((*R)-7a-methyl-5,5-dioxido-7a,8,9,10-tetrahydropyrido[2,3-f]pyrrolo[2,1-d][1,2,5]thiadiazepin-6(7H)-yl)methyl)phenyl)propanoic Acid]	14 nM	350 nM
Cc1ccc([C@@H](CC(=O)O)c2ccc3c(nnn3C3CC3)c2C)cc1CN1C[C@@]2(C)CCCN2c2ncccc2S1(=O)=O (single isomer, unassigned) [Example 223, (*R)-3-(1-Cyclopropyl-4-methyl-1H-benzo[d][1,2,3]triazol-5-yl)-3-(4-methyl-3-(((*R)-7a-methyl-5,5-dioxido-7a,8,9,10-tetrahydropyrido[2,3-f]pyrrolo[2,1-d][1,2,5]thiadiazepin-6(7H)-yl)methyl)phenyl)propanoic Acid]	190 nM	5460 nM
Cc1ccc([C@@H](CC(=O)O)c2ccc3c(nnn3C3CC3)c2C)cc1CN1CC2(CC2)N(C)c2ncccc2S1(=O)=O (single isomer, unassigned) [Example 226, (*R)-3-(1-Cyclopropyl-4-methyl-1H-benzo[d][1,2,3]triazol-5-yl)-3-(4-methyl-3-((5′-methyl-1′,1′-dioxido-5′H-spiro[cyclopropane-1,4′-pyrido[2,3-f][1,2,5]thiadiazepin]-2′(3′H)-yl)methyl)phenyl)propanoic Acid]	6 nM	160 nM

The next lines start with results.

Kd [1]	Structure (SMILES)	EC50 [2]
< 1 nM	Cc1ccc([C@H](CC(=O)O)c2ccn3c(C(F)(F)F)nnc3c2C)cc1CN1CC2(CC2)Oc2ncc(Cl)cc2S1(=O)=O (single isomer, unassigned) [Example 195, (*S)-3-(3-((8′-Chloro-1′,1′-dioxidospiro[cyclopropane-1,4′-pyrido[2,3-b][1,4,5]oxathiazepin]-2′(3′H)-yl)methyl)-4-methylphenyl)-3-(8-methyl-3-(trifluoromethyl)-[1,2,4]triazolo[4,3-a]pyridin-7-yl)propanoic Acid]	5.7 nM
< 1 nM	Cc1ccc([C@H](CC(=O)O)c2ccn3c(C(F)(F)F)nnc3c2C)cc1CN1C[C@H]2COCCN2c2ncc(C#N)cc2S1(=O)=O (single isomer, unassigned) [Example 196, (*S)-3-(3-(((*S)-3-Cyano-5,5-dioxido-7a,8,10,11-tetrahydro-[1,4]oxazino[3,4-d]pyrido[2,3-f][1,2,5]thiadiazepin-6(7H)-yl)methyl)-4-methylphenyl)-3-(8-methyl-3-(trifluoromethyl)-[1,2,4]triazolo[4,3-a]pyridin-7-yl)propanoic Acid]	15 nM
< 1 nM	Cc1ccc([C@H](CC(=O)O)c2ccn3c(C(F)(F)F)nnc3c2C)cc1CN1C[C@H]2COCCN2c2ncc(Cl)cc2S1(=O)=O (single isomer, unassigned) [Example 197, (*S)-3-(3-(((*S)-3-Chloro-5,5-dioxido-7a,8,10,11-tetrahydro-[1,4]oxazino[3,4-d]pyrido[2,3-f][1,2,5]thiadiazepin-6(7H)-yl)methyl)-4-methylphenyl)-3-(8-methyl-3-(trifluoromethyl)-[1,2,4]triazolo[4,3-a]pyridin-7-yl)propanoic Acid]	1.8 nM
< 1 nM	Cc1ccc([C@H](CC(=O)O)c2ccn3c(C(F)(F)F)nnc3c2C)cc1CN1CC2(CC2)Oc2ncc(C#N)cc2S1(=O)=O (single isomer, unassigned) [Example 200, (*S)-3-(3-((8′-Cyano-1′,1′-dioxidospiro[cyclopropane-1,4′-pyrido[2,3-b][1,4,5]oxathiazepin]-2′(3′H)-yl)methyl)-4-methylphenyl)-3-(8-methyl-3-(trifluoromethyl)-[1,2,4]triazolo[4,3-a]pyridin-7-yl)propanoic Acid]	61 nM
< 1 nM	Cc1ccc([C@H](CC(=O)O)c2ccn3c(C(F)(F)F)nnc3c2C)cc1CN1C[C@H]2CCCCN2c2nc(C(N)=O)ccc2S1(=O)=O (single isomer, unassigned) [Example 205, (*S)-3-(3-(((*R)-2-Carbamoyl-5,5-dioxido-7,7a,8,9,10,11-hexahydro-6H-dipyrido[2,1-d:2′,3′-f][1,2,5]thiadiazepin-6-yl)methyl)-4-methylphenyl)-3-(8-methyl-3-(trifluoromethyl)-[1,2,4]triazolo[4,3-a]pyridin-7-yl)propanoic Acid]	130 nM
< 1 nM	Cc1ccc([C@H](CC(=O)O)c2ccn3c(C(F)(F)F)nnc3c2C)cc1CN1C[C@H]2CCCN2c2ncc(C#N)cc2S1(=O)=O (single isomer, unassigned) [Example 207, (*S)-3-(3-(((R)-3-Cyano-5,5-dioxido-7a,8,9,10-tetrahydropyrido[2,3-f]pyrrolo[2,1-d][1,2,5]thiadiazepin-6(7H)-yl)methyl)-4-methylphenyl)-3-(8-methyl-3-(trifluoromethyl)-[1,2,4]triazolo[4,3-a]pyridin-7-yl)propanoic Acid]	11 nM
